Target: human GPR120 (Homo sapiens (Human), UniProt Q5NUL3)
Assay: GPR120 pERK AlphaScreen SureFire Assay (human GPR120 pERK assay)
Type: cell-based
Conditions: CHO cells stably transfected with short form of human GPR120
From the text: GPR120 activity was monitored by measuring phosphorylation of ERK (pERK), since G protein receptors are known to activate the ERK signaling cascade either directly and/or through recruitment of arrestin that serves as a scaffold for downstream signaling events.
GPR120 pERK AlphaScreen SureFire Assay
The human and mouse GPR120-mediated intracellular phosphorylated ERK assays were established using CHOA12 cells stably transfected with the short form of human or mouse GPR120 receptor. Cells were cultured in growth medium consisting of F-12 media (Invitrogen Cat. #11765) with 5% Charcoal/Dextran FBS (Invitrogen Cat. #12676-029), 500 μg/mL GENETICIN® (Life Technologies Cat. #10131-027) and 250 μg/mL Zeocin (Invitrogen Cat. #R250-01). Cells were cryo-preserved at a concentration of 2×10^7 cells/mL, in 90% Charcoal/Dextran FBS and 10% DMSO, and frozen in liquid nitrogen at a low passage number.
For the pERK assay, 2×10^7 cells/mL cryopreserved human and mouse cells were thawed rapidly in a 37° C. water bath and added to a T-225 flask containing 50 mL growth medium. The flasks were placed in a tissue culture incubator overnight (37° C., 5% CO2). The next day, cells were harvested with trypsin (Gibco Cat. #25300-054), resuspended in serum-containing growth medium and counted using a Cellometer and volume adjusted to a concentration of 0.6×10^6 cells/mL. Cells were plated into 384-well clear bottom tissue culture plates (BD Cat. #353962) at 50 μL/well, for a density of 30,000 cells/well using a MULTIDROP® and incubated for 16-18 hours (overnight) at 37° C. with 5% CO2. The next day, cells were serum starved in 30 μL of F-12 media without any serum or antibiotics for 2 hours at 37° C.
Test compounds were 3-fold, 11-point serially diluted in DMSO in a REMP assay plate (Matrix Cat. #4307) by Tecan and 5 μL was transferred into an ECHO source plate (Labcyte Cat. #LC-0200). Cells were then stimulated with 50 nL of compound dilutions using ECHO liquid handler for 7 min at 37° C. Compounds ranged from final assay concentrations of 33.33 μM to 0.56 nM.
The media was then dumped and cells lysed with 20 μL of 1× Lysis buffer from the AlphaScreen SureFire Phospho-ERK 1/2 Kit (Perkin Elmer Cat. #6760617M). The lysis buffer was diluted 5-fold with water before use. The plate was agitated on a shaker for 10 min after which 2 μL was transferred into a 384-well white proxiplate (Perkin Elmer Cat. #6008289). The SureFire assay reagent mix was prepared by mixing 60 parts Reaction Buffer, 10 parts Activation Buffer, 1 part Donor Beads, 1 part Acceptor Beads (Perkin Elmer Cat. #TGRES10K). 3.5 μL/well of this reagent mix was manually added to the proxiplate with a multichannel pipettor. Plates were spun down at 1000 rpm for 2 min, followed by light-protected incubation at room temperature for 2 hours. The plates were read on the Alpha-technology compatible Envision multilabel plate reader using AlphaScreen protocol according to manufacturer's specifications. The agonist effect of compounds was expressed as 100×(average sample-average blank)/(average total-average blank) where sample is the luminescence activity in the presence of test compound, blank is equal to the luminescence activity in the presence of DMSO control and the total is signal induced by 50 μM linolenic acid as reference compound. Activation data for the test compound over a range of concentrations was plotted as percentage activation of the test compound (100%=maximum response). After correcting for background, EC50 values were determined. The EC50 is defined as the concentration of test compound which produces 50% of the maximal response and was quantified using the 4 parameter logistic equation to fit the data.
The human and mouse GPR120-mediated intracellular phosphorylated ERK assays were also established using CHO-K1 cells stably transfected with the short form of human or mouse GPR120 receptor. […]

Sequence of human GPR120 (Q5NUL3 whole entry): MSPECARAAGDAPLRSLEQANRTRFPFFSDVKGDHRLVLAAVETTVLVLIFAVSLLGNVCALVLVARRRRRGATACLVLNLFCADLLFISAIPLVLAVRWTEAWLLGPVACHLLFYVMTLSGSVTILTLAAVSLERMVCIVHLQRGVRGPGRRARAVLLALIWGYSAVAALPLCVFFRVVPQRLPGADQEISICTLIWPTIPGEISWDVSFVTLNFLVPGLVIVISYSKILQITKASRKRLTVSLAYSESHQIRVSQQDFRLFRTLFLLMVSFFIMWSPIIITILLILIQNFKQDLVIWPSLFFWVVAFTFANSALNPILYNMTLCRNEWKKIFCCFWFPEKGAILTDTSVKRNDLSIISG

EC50 [nM]	SMILES
180	CC(C)Oc1ccc(F)c(-c2ccc(OC[C@@H]3C[C@H]3C(=O)O)c(C(F)(F)F)c2)c1 (racemic) [Example 88, Trans-2-(((2′-fluoro-5′-isopropoxy-3-(trifluoromethyl)-[1,1′-biphenyl]-4-yl)oxy)methyl) cyclopropanecarboxylic acid]
940	CC(C)Oc1ccc(F)c(-c2ccc(OC[C@@H]3C[C@H]3C(=O)O)cc2)c1F (relative stereo) [Example 127, Trans-2-(((2′,6′-difluoro-3′-isopropoxy-[1,1′-biphenyl]-4-yl)oxy)methyl) cyclopropanecarboxylic acid]
1250	O=C(O)[C@@H]1C[C@H]1COc1ccc(-c2cc(C(F)(F)F)ccc2Cl)cc1 (racemic) [Example 121, Trans-2-(((2′-chloro-5′-(trifluoromethyl)-[1,1′-biphenyl]-4-yl)oxy)methyl)cyclopropanecarboxylic acid]
2860	CC(C)Oc1ccc(F)c(-c2ccc(OC[C@@H]3C[C@@H]3C(=O)O)cc2)c1 (single isomer, unassigned) [Example 8]
470	O=C(O)C1CC1COc1ccc(-c2cc(OC(F)(F)F)ccc2F)cc1 (racemic) [Example 51, Trans-2-(((2′-fluoro-5′-(trifluoromethoxy)-[1,1′-biphenyl]-4-yl)oxy)methyl)cyclopropanecarboxylic acid]
70	O=C(O)[C@@H]1CC1COc1ccc(-c2cc(Oc3cccc(F)c3)ccc2F)cc1F (stereo partly shown) [Example 97]
610	COc1cc(OC(F)(F)F)cc(-c2ccc(OC[C@@H]3C[C@H]3C(=O)O)cc2)c1 (racemic) [Example 74, Trans-2-(((3′-methoxy-5′-(trifluoromethoxy)-[1,1′-biphenyl]-4-yl)oxy)methyl)cyclopropanecarboxylic acid]
370	CC(C)Oc1ccc(F)c(-c2ccc(OC[C@@H]3C[C@H]3C(=O)O)cc2)c1 (racemic) [Example 1, Trans-2-(((2′-fluoro-5′-isopropoxy-[1,1′-biphenyl]-4-yl)oxy)methyl) cyclopropanecarboxylic acid]
90	O=C(O)C1CC1COc1ccc(-c2cc(Oc3cccc(F)c3)cc(F)c2F)cc1F (racemic) [Example 104, Trans-2-(((2′,3,3′-trifluoro-5′-(3-fluorophenoxy)-[1,1′-biphenyl]-4-yl)oxy)methyl)cyclopropanecarboxylic acid]
180	O=C(O)[C@@H]1C[C@H]1COc1ccc(-c2cc(Oc3cccc(F)c3)ccc2F)cc1F (relative stereo) [Example 96, Trans-2-(((2′,3-difluoro-5′-(3-fluorophenoxy)-[1,1′-biphenyl]-4-yl)oxy)methyl) cyclopropanecarboxylic acid]
320	CC(C)Oc1cc(F)c(F)c(-c2ccc(OC[C@@H]3C[C@H]3C(=O)O)c(F)c2)c1 (single isomer, unassigned) [Example 66]
440	CC(C)Oc1ccc(F)c(-c2ccc(COC[C@@H]3C[C@H]3C(=O)O)cc2)c1 (racemic) [Example 24, Trans-2-(((2′-fluoro-5′-isopropoxy-[1,1′-biphenyl]-4-yl)methoxy)methyl) cyclopropanecarboxylic acid]
430	CC(C)Oc1ccc(F)c(-c2ccc(C[C@H]3C[C@H]3CC(=O)O)cc2)c1 (racemic) [Example 34, Cis-2-(2-((2′-fluoro-5′-isopropoxy-[1,1′-biphenyl]-4-yl)methyl)cyclopropyl)acetic acid]
660	O=C(O)[C@@H]1C[C@H]1COc1ccc(-c2cc(F)cc(Oc3ccccc3)c2)cc1 (racemic) [Example 23, Trans-2-(((3′-fluoro-5′-phenoxy-[1,1′-biphenyl]-4-yl)oxy)methyl)cyclopropanecarboxylic acid]
230	CC(C)Oc1cc(F)c(F)c(-c2ccc(OC[C@H]3C[C@@H]3C(=O)O)c(F)c2)c1 [Example 67, (1S,2S)-2-(((2′,3,3′-Trifluoro-5′-isopropoxy-[1,1′-biphenyl]-4-yl)oxy)methyl)cyclopropanecarboxylic acid]
2040	CC(C)Oc1cc(-c2ccc(OC[C@@H]3C[C@H]3C(=O)O)cc2)cc(C(F)(F)F)c1 (racemic) [Example 47, Trans-2-(((3′-isopropoxy-5′-(trifluoromethyl)-[1,1′-biphenyl]-4-yl)oxy)methyl)cyclopropanecarboxylic acid]
200	CC(C)Oc1ccc(F)c(-c2ccc(CC[C@@H]3C[C@@H]3C(=O)O)cc2)c1 (single isomer, unassigned) [Example 17]
620	O=C(O)C1CC1COc1ccc(-c2cc(OC(F)(F)F)ccc2F)cc1 (single isomer, unassigned) [Example 52, Trans-2-(((2′-fluoro-5′-(trifluoromethoxy)-[1,1′-biphenyl]-4-yl)oxy)methyl)cyclopropanecarboxylic acid]
290	CC(C)Oc1ccc(F)c(-c2ccc(OC[C@H]3C[C@@H]3C(=O)O)c(F)c2)c1 (single isomer, unassigned) [Example 64]
830	CC(C)Oc1cc(Cl)cc(-c2ccc(OC[C@H]3C[C@@H]3C(=O)O)c(F)c2)c1 (single isomer, unassigned) [Example 14]
3620	COCc1cc(OC(C)C)cc(-c2ccc(OC[C@@H]3C[C@H]3C(=O)O)cc2)c1 (racemic) [Example 86, Trans-2-(((3′-isopropoxy-5′-(methoxymethyl)-[1,1′-biphenyl]-4-yl)oxy)methyl) cyclopropanecarboxylic acid]
990	CC1(C)Cc2c(cc(F)cc2-c2ccc(OC[C@@H]3C[C@H]3C(=O)O)cc2)O1 (racemic) [Example 20, Trans-2-((4-(6-fluoro-2,2-dimethyl-2,3-dihydrobenzofuran-4-yl)phenoxy)methyl) cyclopropanecarboxylic acid]
1440	COc1ccc(OC(F)(F)F)cc1-c1ccc(CC[C@@H]2C[C@H]2C(=O)O)cc1 (racemic) [Example 79, Trans-2-(2-(2′-methoxy-5′-(trifluoromethoxy)-[1,1′-biphenyl]-4-yl)ethyl)cyclopropanecarboxylic acid]
2400	CC(C)Oc1cc(-c2ccc(OC[C@@H]3C[C@H]3C(=O)O)cc2)c(F)cn1 (racemic) [Example 70, Trans-2-((4-(5-fluoro-2-isopropoxypyridin-4-yl)phenoxy)methyl)cyclopropanecarboxylic acid]
660	CCOc1ccc(F)c(-c2ccc(OC[C@@H]3C[C@H]3C(=O)O)cc2)c1 (racemic) [Example 68, Trans-2-(((5′-ethoxy-2′-fluoro-[1,1′-biphenyl]-4-yl)oxy)methyl) cyclopropanecarboxylic acid]
1580	O=C(O)[C@@H]1C[C@H]1CCc1ccc(-c2cccc(-n3cccc3)c2)cc1 (racemic) [Example 129, Trans-2-(2-(3′-(1H-pyrrol-1-yl)-[1,1′-biphenyl]-4-yl)ethyl) cyclopropanecarboxylic acid]
360	Cc1ccc(Oc2cc(F)c(F)c(-c3ccc(OCC4CC4C(=O)O)c(F)c3)c2)cc1F (single isomer, unassigned) [Example 108]
2110	O=C(O)[C@@H]1C[C@@H]1COc1ccc(-c2cc(Oc3ccccc3)ccc2F)cc1 (single isomer, unassigned) [Example 5]
